The values below come from ChEMBL document CHEMBL6153041, “Discovery of High-Affinity SMARCA2/4 Bromodomain Ligands and Development of Potent and Exceptionally Selective SMARCA2 PROTAC Degraders” (J Med Chem, 2025).

The target in assay [1] is SWI/SNF-related matrix-associated actin-dependent regulator of chromatin subfamily A member 4 (Homo sapiens, UniProt P51532). In words: Binding affinity to SMARCA4 (unknown origin) assessed as dissociation constant.
The subject of assay [2] is HeLa. In words: Selectivity ratio, ratio of DC50 for VHL1/SMARCA4 in human genetically modified Hela cells to VHL1/SMARCA2 in human genetically modified Hela cells. Type of assay: cell-based.
Assay [3] concerns the target T1, von Hippel-Lindau disease tumor suppressor/SWI/SNF-related matrix-associated actin-dependent regulator of chromatin subfamily A member 4 (Homo sapiens, UniProt P51532+P40337). In words: PROTAC activity at VHL1/SMARCA4 in human genetically modified Hela cells assessed as maximal degradation measured after 24 hrs incubation by Nano-Glo HiBiT Lytic Detection Assay relative to control. It is filed as cell-based.

For assay [4], the target named is T2, von Hippel-Lindau disease tumor suppressor/SWI/SNF-related matrix-associated actin-dependent regulator of chromatin subfamily A member 2 (Homo sapiens, UniProt P51531+P40337). In words: PROTAC activity at VHL1/SMARCA2 in human genetically modified Hela cells assessed as maximal degradation measured after 24 hrs incubation by Nano-Glo HiBiT Lytic Detection Assay relative to control. It is filed as cell-based. In general terms: HiBiT is a short tag that completes a luciferase, so light tracks the accessible tagged protein.

The target of assay [5] is T1, von Hippel-Lindau disease tumor suppressor/SWI/SNF-related matrix-associated actin-dependent regulator of chromatin subfamily A member 4. In words: PROTAC activity at VHL1/SMARCA4 in human genetically modified Hela cells assessed as degradation measured after 24 hrs incubation by Nano-Glo HiBiT Lytic Detection Assay. It is filed as cell-based.
Target sequence in this assay (P51532 whole entry): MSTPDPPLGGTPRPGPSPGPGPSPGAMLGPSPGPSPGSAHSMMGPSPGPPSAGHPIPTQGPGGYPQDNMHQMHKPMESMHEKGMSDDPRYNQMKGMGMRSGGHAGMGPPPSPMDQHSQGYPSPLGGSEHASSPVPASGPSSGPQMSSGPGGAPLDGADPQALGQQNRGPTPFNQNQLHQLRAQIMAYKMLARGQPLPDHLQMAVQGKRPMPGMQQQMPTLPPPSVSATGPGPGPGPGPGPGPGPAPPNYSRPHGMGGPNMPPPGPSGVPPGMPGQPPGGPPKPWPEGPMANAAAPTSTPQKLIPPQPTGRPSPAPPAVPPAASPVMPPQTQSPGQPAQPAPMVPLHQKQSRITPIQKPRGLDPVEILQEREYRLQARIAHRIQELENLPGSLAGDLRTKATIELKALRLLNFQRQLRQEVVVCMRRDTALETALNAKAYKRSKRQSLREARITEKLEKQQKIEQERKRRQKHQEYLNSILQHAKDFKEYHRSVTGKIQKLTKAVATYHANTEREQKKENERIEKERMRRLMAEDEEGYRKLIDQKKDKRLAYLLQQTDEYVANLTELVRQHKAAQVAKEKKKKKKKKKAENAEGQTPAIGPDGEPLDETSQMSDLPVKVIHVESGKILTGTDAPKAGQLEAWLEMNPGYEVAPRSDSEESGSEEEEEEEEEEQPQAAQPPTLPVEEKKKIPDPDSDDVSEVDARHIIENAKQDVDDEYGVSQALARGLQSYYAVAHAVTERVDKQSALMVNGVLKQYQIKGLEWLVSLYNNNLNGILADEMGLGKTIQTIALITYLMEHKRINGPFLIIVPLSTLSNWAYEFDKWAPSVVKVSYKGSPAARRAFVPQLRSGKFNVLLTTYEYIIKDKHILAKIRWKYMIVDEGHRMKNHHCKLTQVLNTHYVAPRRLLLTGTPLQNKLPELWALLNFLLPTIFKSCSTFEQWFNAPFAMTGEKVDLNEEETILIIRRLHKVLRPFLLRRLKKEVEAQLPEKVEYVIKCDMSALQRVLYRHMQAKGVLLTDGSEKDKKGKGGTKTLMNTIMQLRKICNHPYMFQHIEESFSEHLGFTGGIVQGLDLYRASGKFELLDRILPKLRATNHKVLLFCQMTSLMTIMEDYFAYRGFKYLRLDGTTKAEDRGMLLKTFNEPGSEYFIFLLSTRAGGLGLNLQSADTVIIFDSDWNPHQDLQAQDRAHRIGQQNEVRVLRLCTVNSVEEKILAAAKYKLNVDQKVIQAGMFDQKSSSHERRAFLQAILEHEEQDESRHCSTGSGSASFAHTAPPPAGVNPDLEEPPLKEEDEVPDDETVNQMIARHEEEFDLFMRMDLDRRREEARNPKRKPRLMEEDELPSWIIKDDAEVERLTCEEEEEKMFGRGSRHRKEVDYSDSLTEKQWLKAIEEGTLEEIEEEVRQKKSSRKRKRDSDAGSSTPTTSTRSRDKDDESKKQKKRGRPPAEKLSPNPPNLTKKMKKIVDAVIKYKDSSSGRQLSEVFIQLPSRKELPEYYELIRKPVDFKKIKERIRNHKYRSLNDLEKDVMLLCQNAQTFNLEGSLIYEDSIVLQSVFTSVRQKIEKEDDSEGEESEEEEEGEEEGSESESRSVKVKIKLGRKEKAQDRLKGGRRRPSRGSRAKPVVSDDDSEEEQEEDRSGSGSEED
Target sequence in this assay (P40337 whole entry): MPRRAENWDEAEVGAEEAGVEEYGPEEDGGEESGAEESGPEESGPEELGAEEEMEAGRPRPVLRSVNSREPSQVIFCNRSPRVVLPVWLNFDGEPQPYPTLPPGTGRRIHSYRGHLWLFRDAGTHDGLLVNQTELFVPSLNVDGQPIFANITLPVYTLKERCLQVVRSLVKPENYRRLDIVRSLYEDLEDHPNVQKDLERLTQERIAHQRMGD
Assay [6] deals with T2, von Hippel-Lindau disease tumor suppressor/SWI/SNF-related matrix-associated actin-dependent regulator of chromatin subfamily A member 2. In words: PROTAC activity at VHL1/SMARCA2 in human genetically modified Hela cells assessed as degradation measured after 24 hrs incubation by Nano-Glo HiBiT Lytic Detection Assay. It is filed as cell-based.
Target sequence in this assay (P51531 whole entry): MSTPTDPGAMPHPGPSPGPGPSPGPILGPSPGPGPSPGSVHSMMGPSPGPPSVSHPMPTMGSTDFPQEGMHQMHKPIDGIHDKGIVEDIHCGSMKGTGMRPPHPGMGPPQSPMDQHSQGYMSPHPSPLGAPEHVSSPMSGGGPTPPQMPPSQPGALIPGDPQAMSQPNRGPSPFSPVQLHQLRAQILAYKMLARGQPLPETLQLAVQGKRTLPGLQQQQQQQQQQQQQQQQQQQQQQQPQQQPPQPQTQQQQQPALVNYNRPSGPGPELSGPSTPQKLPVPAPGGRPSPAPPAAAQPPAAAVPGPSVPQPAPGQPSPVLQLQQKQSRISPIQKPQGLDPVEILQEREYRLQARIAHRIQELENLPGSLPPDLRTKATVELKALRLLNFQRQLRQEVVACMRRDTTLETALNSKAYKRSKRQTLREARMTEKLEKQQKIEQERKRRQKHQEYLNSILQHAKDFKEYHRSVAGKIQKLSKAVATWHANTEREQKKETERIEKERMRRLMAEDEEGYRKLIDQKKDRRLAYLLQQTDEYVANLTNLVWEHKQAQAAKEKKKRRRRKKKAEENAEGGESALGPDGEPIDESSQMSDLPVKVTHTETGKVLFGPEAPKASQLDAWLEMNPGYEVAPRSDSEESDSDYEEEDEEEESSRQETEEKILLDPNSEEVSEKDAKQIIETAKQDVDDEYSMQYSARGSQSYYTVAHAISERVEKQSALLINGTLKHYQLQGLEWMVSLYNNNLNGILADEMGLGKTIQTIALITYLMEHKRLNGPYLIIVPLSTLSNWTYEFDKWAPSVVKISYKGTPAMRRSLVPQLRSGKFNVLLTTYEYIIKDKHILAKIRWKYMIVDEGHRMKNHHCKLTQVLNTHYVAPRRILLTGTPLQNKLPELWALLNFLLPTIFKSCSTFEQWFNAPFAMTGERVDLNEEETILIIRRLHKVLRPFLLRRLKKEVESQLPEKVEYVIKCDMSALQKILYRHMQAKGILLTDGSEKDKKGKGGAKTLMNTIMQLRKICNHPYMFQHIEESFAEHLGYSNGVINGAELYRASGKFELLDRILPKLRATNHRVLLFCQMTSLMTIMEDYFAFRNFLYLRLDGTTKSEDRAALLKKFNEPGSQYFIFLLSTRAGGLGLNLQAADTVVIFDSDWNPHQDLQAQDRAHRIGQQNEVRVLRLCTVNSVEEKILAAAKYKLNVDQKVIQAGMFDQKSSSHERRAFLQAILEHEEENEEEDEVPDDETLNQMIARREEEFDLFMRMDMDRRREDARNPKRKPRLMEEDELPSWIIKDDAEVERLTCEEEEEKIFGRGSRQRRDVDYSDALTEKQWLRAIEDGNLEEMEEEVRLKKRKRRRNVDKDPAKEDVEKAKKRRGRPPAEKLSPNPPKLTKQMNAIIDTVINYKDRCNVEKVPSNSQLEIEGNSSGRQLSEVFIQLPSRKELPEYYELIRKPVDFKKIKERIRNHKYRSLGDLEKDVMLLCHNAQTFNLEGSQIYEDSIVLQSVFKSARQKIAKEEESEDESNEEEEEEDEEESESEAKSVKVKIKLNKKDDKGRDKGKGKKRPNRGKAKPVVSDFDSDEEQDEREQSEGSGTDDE
Target sequence in this assay (P40337 whole entry): as the sequence (P40337 whole entry) above
Assay [7] has as its target T1, von Hippel-Lindau disease tumor suppressor/SWI/SNF-related matrix-associated actin-dependent regulator of chromatin subfamily A member 4. In words: PROTAC activity at VHL1/SMARCA4 in human NCI-H1792 cells assessed as degradation measured after 24 hrs incubation by Western blot analysis. It is filed as cell-based.
Target sequence in this assay (P51532 whole entry): as the sequence (P51532 whole entry) above
Target sequence in this assay (P40337 whole entry): as the sequence (P40337 whole entry) above
The target is the same in assay [8]. In words: PROTAC activity at VHL1/SMARCA4 in human genetically modified Hela cells assessed as degradation measured after 8 hrs incubation by Nano-Glo HiBiT Lytic Detection Assay. It is filed as cell-based.
Target sequence in this assay (P51532 whole entry): as the sequence (P51532 whole entry) above
Target sequence in this assay (P40337 whole entry): as the sequence (P40337 whole entry) above
Assay [9] deals with SK-MEL-28. In words: Anticancer activity against human SK-MEL-28 cells harbouring wild type SMARCA4 assessed as maximal inhibition of cell growth measured after 7 days incubation by WST-8 assay relative to control. The settings on record: time 7 day. Type of assay: functional. For orientation: Tetrazolium assays rely on reduction of a dye to a coloured formazan, in cell work by metabolically active cells.

Assay [10] has as its target T2, von Hippel-Lindau disease tumor suppressor/SWI/SNF-related matrix-associated actin-dependent regulator of chromatin subfamily A member 2. In words: PROTAC activity at VHL1/SMARCA2 in human genetically modified Hela cells assessed as degradation measured after 48 hrs incubation by Nano-Glo HiBiT Lytic Detection Assay. It is filed as cell-based.
Target sequence in this assay (P51531 whole entry): as the sequence (P51531 whole entry) above
Target sequence in this assay (P40337 whole entry): as the sequence (P40337 whole entry) above
Assay [11] deals with T1, von Hippel-Lindau disease tumor suppressor/SWI/SNF-related matrix-associated actin-dependent regulator of chromatin subfamily A member 4. In words: PROTAC activity at VHL1/SMARCA4 in human genetically modified Hela cells assessed as maximal degradation measured after 8 hrs incubation by Nano-Glo HiBiT Lytic Detection Assay relative to control. Type of assay: cell-based.

The test system of assay [12] is NCI-H1792. In words: Anticancer activity against human NCI-H1792 cells harbouring wild type SMARCA4 assessed as inhibition of cell growth measured after 7 days incubation by WST-8 assay. Type of assay: functional. Conditions: NCI-H1792, 168 h, time 7 day.
In assay [13] the target is T1, von Hippel-Lindau disease tumor suppressor/SWI/SNF-related matrix-associated actin-dependent regulator of chromatin subfamily A member 4. In words: PROTAC activity at VHL1/SMARCA4 in human genetically modified Hela cells assessed as maximal degradation measured after 4 hrs incubation by Nano-Glo HiBiT Lytic Detection Assay relative to control. Type of assay: cell-based.

The target in assay [14] is T2, von Hippel-Lindau disease tumor suppressor/SWI/SNF-related matrix-associated actin-dependent regulator of chromatin subfamily A member 2. In words: PROTAC activity at VHL1/SMARCA2 in human genetically modified Hela cells assessed as maximal degradation measured after 8 hrs incubation by Nano-Glo HiBiT Lytic Detection Assay relative to control. It is filed as cell-based.

For assay [15], the system named is SK-MEL-5. In words: Anticancer activity against SMARCA4 deficient human SK-MEL-5 cells assessed as inhibition of cell growth measured after 7 days incubation by WST-8 assay. Type of assay: functional. The settings on record: SK-MEL-5, 168 h, time 7 day.
The nature of assay [16]: Anticancer activity against SMARCA4 deficient human NCI-H838 cells assessed as maximal inhibition of cell growth measured after 7 days incubation by WST-8 assay relative to control. Type of assay: functional. Conditions: time 7 day.
Assay [17] deals with T2, von Hippel-Lindau disease tumor suppressor/SWI/SNF-related matrix-associated actin-dependent regulator of chromatin subfamily A member 2. In words: PROTAC activity at VHL1/SMARCA2 in human genetically modified Hela cells assessed as maximal degradation measured after 48 hrs incubation by Nano-Glo HiBiT Lytic Detection Assay relative to control. Type of assay: cell-based.

Assay [18] addresses T1, von Hippel-Lindau disease tumor suppressor/SWI/SNF-related matrix-associated actin-dependent regulator of chromatin subfamily A member 4. In words: PROTAC activity at VHL1/SMARCA4 mutant in human SK-MEL-5 cells assessed as degradation measured after 24 hrs incubation by Western blot analysis. Type of assay: cell-based. (A western blot detects proteins with antibodies after separation by electrophoresis.)

Assay [19] has the same target. In words: PROTAC activity at VHL1/SMARCA4 in human genetically modified Hela cells assessed as maximal degradation measured after 48 hrs incubation by Nano-Glo HiBiT Lytic Detection Assay relative to control. Type of assay: cell-based.
The target in assay [20] is T2, von Hippel-Lindau disease tumor suppressor/SWI/SNF-related matrix-associated actin-dependent regulator of chromatin subfamily A member 2. In words: PROTAC activity at VHL1/SMARCA2 in human NCI-H1792 cells assessed as degradation measured after 24 hrs incubation by Western blot analysis. It is filed as cell-based.
Target sequence in this assay (P51531 whole entry): as the sequence (P51531 whole entry) above
Target sequence in this assay (P40337 whole entry): as the sequence (P40337 whole entry) above
The target is the same in assay [21]. In words: PROTAC activity at VHL1/SMARCA2 in human genetically modified Hela cells assessed as degradation measured after 4 hrs incubation by Nano-Glo HiBiT Lytic Detection Assay. Type of assay: cell-based.
Target sequence in this assay (P51531 whole entry): as the sequence (P51531 whole entry) above
Target sequence in this assay (P40337 whole entry): as the sequence (P40337 whole entry) above
The subject of assay [22] is von Hippel-Lindau disease tumor suppressor/SWI/SNF-related matrix-associated actin-dependent regulator of chromatin subfamily A member 4 (Homo sapiens), P51532+P40337 [UNDEFINED MUTATION]. In words: PROTAC activity at VHL1/SMARCA4 mutant in human NCI-H838 cells assessed as maximal degradation measured after 24 hrs incubation by Western blot analysis relative to control. It is filed as cell-based.

Assay [23] concerns SK-MEL-28. In words: Anticancer activity against human SK-MEL-28 cells harbouring wild type SMARCA4 assessed as inhibition of cell growth measured after 7 days incubation by WST-8 assay. Type of assay: functional. The settings on record: SK-MEL-28, 168 h, time 7 day.
The target in assay [24] is T1, von Hippel-Lindau disease tumor suppressor/SWI/SNF-related matrix-associated actin-dependent regulator of chromatin subfamily A member 4. In words: PROTAC activity at VHL1/SMARCA4 in human NCI-H1792 cells assessed as maximal degradation measured after 24 hrs incubation by Western blot analysis relative to control. Type of assay: cell-based.
For assay [25] the target is unchanged. In words: PROTAC activity at VHL1/SMARCA4 in human genetically modified Hela cells assessed as degradation measured after 48 hrs incubation by Nano-Glo HiBiT Lytic Detection Assay. Type of assay: cell-based.
Target sequence in this assay (P51532 whole entry): as the sequence (P51532 whole entry) above
Target sequence in this assay (P40337 whole entry): as the sequence (P40337 whole entry) above
Assay [26] has the same target. In words: PROTAC activity at VHL1/SMARCA4 in human genetically modified Hela cells assessed as degradation measured after 4 hrs incubation by Nano-Glo HiBiT Lytic Detection Assay. Type of assay: cell-based.
Target sequence in this assay (P51532 whole entry): as the sequence (P51532 whole entry) above
Target sequence in this assay (P40337 whole entry): as the sequence (P40337 whole entry) above
The target in assay [27] is T2, von Hippel-Lindau disease tumor suppressor/SWI/SNF-related matrix-associated actin-dependent regulator of chromatin subfamily A member 2. In words: PROTAC activity at VHL1/SMARCA2 in human genetically modified Hela cells assessed as maximal degradation measured after 4 hrs incubation by Nano-Glo HiBiT Lytic Detection Assay relative to control. Type of assay: cell-based.

Assay [28] concerns the target T1, von Hippel-Lindau disease tumor suppressor/SWI/SNF-related matrix-associated actin-dependent regulator of chromatin subfamily A member 4. In words: PROTAC activity at VHL1/SMARCA4 mutant in human NCI-H838 cells assessed as degradation measured after 24 hrs incubation by Western blot analysis. Type of assay: cell-based.
The test system of assay [29] is von Hippel-Lindau disease tumor suppressor/SWI/SNF-related matrix-associated actin-dependent regulator of chromatin subfamily A member 4 (Homo sapiens), P51532+P40337 [UNDEFINED MUTATION]. In words: PROTAC activity at VHL1/SMARCA4 mutant in human SK-MEL-5 cells assessed as maximal degradation measured after 24 hrs incubation by Western blot analysis relative to control. It is filed as cell-based.

In assay [30] the test system is SK-MEL-5. In words: Anticancer activity against SMARCA4 deficient human SK-MEL-5 cells assessed as maximal inhibition of cell growth measured after 7 days incubation by WST-8 assay relative to control. It is filed as functional. The settings on record: time 7 day.
Assay [31] is described as follows: Anticancer activity against SMARCA4 deficient human NCI-H838 cells assessed as inhibition of cell growth measured after 7 days incubation by WST-8 assay. Type of assay: functional. Conditions: NCI-H838, 168 h, time 7 day.
Assay [32] concerns the target T2, von Hippel-Lindau disease tumor suppressor/SWI/SNF-related matrix-associated actin-dependent regulator of chromatin subfamily A member 2. In words: PROTAC activity at VHL1/SMARCA2 in human NCI-H1792 cells assessed as maximal degradation measured after 24 hrs incubation by Western blot analysis relative to control. It is filed as cell-based.
For assay [33] the target is unchanged. In words: PROTAC activity at VHL1/SMARCA2 in human genetically modified Hela cells assessed as degradation measured after 8 hrs incubation by Nano-Glo HiBiT Lytic Detection Assay. Type of assay: cell-based.
Target sequence in this assay (P51531 whole entry): as the sequence (P51531 whole entry) above
Target sequence in this assay (P40337 whole entry): as the sequence (P40337 whole entry) above
Assay [34] deals with NCI-H1792. In words: Anticancer activity against human NCI-H1792 cells harbouring wild type SMARCA4 assessed as maximal inhibition of cell growth measured after 7 days incubation by WST-8 assay relative to control. Conditions: time 7 day. Type of assay: functional.

Structures are written as SMILES. Where only a bound is given, the exact number is not on record here.

On to `Cn1cc(-c2cc(-c3ccccc3O)nnc2N)cn1`, for which the Kd in assay [1] is 12.8 nM.

Consider `Cc1ncsc1-c1ccc([C@H](CCCCCN2CCC(c3ccc4c(c3)-n3c(nc(=O)c5c(Br)cccc53)C43CCCCC3)CC2)NC(=O)[C@@H]2C[C@@H](O)CN2C(=O)[C@@H](NC(=O)C2(F)CC2)C(C)(C)C)cc1`, for which the Ratio in [2] stood at 28. Also, the maximal response (Emax) in assay [3] amounted to 93%; in [4], 95%. Besides, the DC50 was determined as 84 nM in [5] and 3 nM in assay [6].

Take `Cc1ncsc1-c1ccc([C@H](C)NC(=O)[C@@H]2C[C@@H](O)CN2C(=O)[C@@H](NC(=O)[C@H]2CC[C@H](CN3CCC(c4ccc5c(c4)-n4c(nc(=O)c6c(Cl)cccc64)C54CCCCC4)CC3)CC2)C(C)(C)C)cc1`: the DC50 in assay [7] is more than 1000 nM; in [8], more than 1000 nM; in assay [10], 44 nM; in assay [18] it was 81.1 nM; in [5], more than 10000 nM; in assay [20], 54.2 nM. Moreover, the DC50 in assay [21] is 142 nM; in assay [25], more than 1000 nM; in assay [26], more than 1000 nM; in assay [28], 76.2 nM; in assay [33], 89 nM. The Imax is recorded as 0% in assay [9], 79% in assay [16], 93% in assay [30] and 0% in [34]. Further, the Emax in [11] is less than 10%; in assay [13] it was less than 10%; in [14], 85%; in [3], 20%; in assay [17], 91%; in assay [4] it was 89%. In addition, the Emax in [19] was less than 10%; in [22], less than 89%; in assay [24], less than 30%; in [27], 76%; in assay [29], 87%; in assay [32], 87%. In addition, the GI50 in [12] is more than 1000 nM; in [15], more than 22.3 nM; in assay [23], more than 1000 nM; in [31] it was 142 nM. Moreover, the Ratio in assay [2] was more than 1250.

Broadly, the Kd is the constant that tells how readily two partners part at equilibrium. For orientation: Emax means the greatest response seen or fitted, relative to the assay's reference. A word on the DC50: it is the concentration giving 50% degradation. Usually GI50 stands for the concentration that inhibits growth by half.
